Experimental data as given in patent US9468209B2, “Method for eradicating weeds with derivatives of 3-acetyl-5-sec-butyl-4-hydroxy-3-pyrrolin-2-one” (priority 2012, dated 2016).

Tests used:
Japanese alopecurus = experiment: Leaf piece damage test; assay type: in vivo; parameters: key: 4: The leaf completely dead; 3: Two third of the leaf withered; 2: One half of the leaf withered; 1: Only edge of the leaf withered; 0: Not damage at all; details: 50 μg/mL, 4 days
Protocol: (§1) Compounds 7, 14, 15, 16, 40, 45, 48 and 53 were dissolved individually in small amount of methanol, and diluted with distilled water to concentration of 50 μg/mL. Methanol water solution and pure water were used as control. A piece of 5 mm leaf was taken from the second leaf of weed sample and was treated with the solution three times. 5 pieces of the leaf were prepared for each treatment. The damage data were collected 4 days later. The measurement of damage level is described in the Table 9.
(§2) The measurement of the plant damage was calculated by the formula: Damage Index=Σ(damage level×number of plants)×100/4/number of plants in each treatment.

Equal alopecurus = experiment: Leaf piece damage test; assay type: in vivo; parameters: key: 4: The leaf completely dead; 3: Two third of the leaf withered; 2: One half of the leaf withered; 1: Only edge of the leaf withered; 0: Not damage at all; details: 50 μg/mL, 4 days
Protocol: as §1, §2

Conyza canademsis = experiment: Leaf piece damage test; assay type: in vivo; parameters: key: 4: The leaf completely dead; 3: Two third of the leaf withered; 2: One half of the leaf withered; 1: Only edge of the leaf withered; 0: Not damage at all; details: 50 μg/mL, 4 days
Protocol: as §1, §2

[1] = tested on: Alligator weed (Alternanthera philoxeroides); experiment: Leaf piece damage test; assay type: in vivo; parameters: key: 4: The leaf completely dead; 3: Two third of the leaf withered; 2: One half of the leaf withered; 1: Only edge of the leaf withered; 0: Not damage at all; details: 50 μg/mL, 4 days
Protocol: as §1, §2

Keng stiffgrass = experiment: Leaf piece damage test; assay type: in vivo; parameters: key: 4: The leaf completely dead; 3: Two third of the leaf withered; 2: One half of the leaf withered; 1: Only edge of the leaf withered; 0: Not damage at all; details: 50 μg/mL, 4 days
Protocol: as §1, §2

Sonchus asper = experiment: Leaf piece damage test; assay type: in vivo; parameters: key: 4: The leaf completely dead; 3: Two third of the leaf withered; 2: One half of the leaf withered; 1: Only edge of the leaf withered; 0: Not damage at all; details: 50 μg/mL, 4 days
Protocol: as §1, §2

Humulus scandens = experiment: Leaf piece damage test; assay type: in vivo; parameters: key: 4: The leaf completely dead; 3: Two third of the leaf withered; 2: One half of the leaf withered; 1: Only edge of the leaf withered; 0: Not damage at all; details: 50 μg/mL, 4 days
Protocol: as §1, §2

Commelina bengalensis = experiment: Leaf piece damage test; assay type: in vivo; parameters: key: 4: The leaf completely dead; 3: Two third of the leaf withered; 2: One half of the leaf withered; 1: Only edge of the leaf withered; 0: Not damage at all; details: 50 μg/mL, 4 days
Protocol: as §1, §2

Plantago asiatica = experiment: Leaf piece damage test; assay type: in vivo; parameters: key: 4: The leaf completely dead; 3: Two third of the leaf withered; 2: One half of the leaf withered; 1: Only edge of the leaf withered; 0: Not damage at all; details: 50 μg/mL, 4 days
Protocol: as §1, §2

[2] = tested on: Parthenocissus tricuspidata; experiment: Leaf piece damage test; assay type: in vivo; parameters: key: 4: The leaf completely dead; 3: Two third of the leaf withered; 2: One half of the leaf withered; 1: Only edge of the leaf withered; 0: Not damage at all; details: 50 μg/mL, 4 days
Protocol: as §1, §2

Cyperus difformis = experiment: Leaf piece damage test; assay type: in vivo; parameters: key: 4: The leaf completely dead; 3: Two third of the leaf withered; 2: One half of the leaf withered; 1: Only edge of the leaf withered; 0: Not damage at all; details: 50 μg/mL, 4 days
Protocol: as §1, §2

Eclipta prostrata = experiment: Leaf piece damage test; assay type: in vivo; parameters: key: 4: The leaf completely dead; 3: Two third of the leaf withered; 2: One half of the leaf withered; 1: Only edge of the leaf withered; 0: Not damage at all; details: 50 μg/mL, 4 days
Protocol: as §1, §2

Perilla frutescens = experiment: Leaf piece damage test; assay type: in vivo; parameters: key: 4: The leaf completely dead; 3: Two third of the leaf withered; 2: One half of the leaf withered; 1: Only edge of the leaf withered; 0: Not damage at all; details: 50 μg/mL, 4 days
Protocol: as §1, §2

[3] = tested on: fluorescence of chlorophyll; experiment: Fluorescence of chlorophyll of treated Crofton weed leaves; assay type: biochemical; details: 50 μg/mL, strong light 12 hours
Protocol: Compounds 10-57 were dissolved in small amount of methanol. The solutions were then diluted with distilled water to a concentration of 50 μg/mL. A mixture of methanol and water in the same ratio as the sample solution was also prepared and used as control in the experiment. The healthy leaves of Crofton weed were washed in water for 30 minutes and then rinsed with distilled water. The clean and tissue dried leaves were placed in petri dish with the back-side of the leaves facing up. Wet filter paper was also placed in the in petri dish for moisture control. Water, methanol and chemical solutions of the analogues were applied to the back-side of each leaf. Test sample was then placed in vacuum chamber at 25° C. for 15 min followed by exposure to the strong light (400 μM m^−2 s^−1) for 12 hours. The leaf sample went through a series of test, and the Hill reaction rate, the electron transfer activity and fluorescence of chlorophyll were measured. Four leaves were used for each treatment and each test was repeated three times.

Crofton weed = experiment: Needle puncture pathogenic test on slightly wounded leaf of Crofton weed; assay type: in vivo; details: Crofton weed leaf, 50 μg/mL, 25° C., natural light
Protocol: 3-acetyl-5-sec-butyl-4-hydroxy-3-pyrrolin-2-one analogs were dissolved in a small amount of methanol and diluted with water to a concentration of 5-100 μg/g. A pathogenic test was conducted by placing the toxic liquid on the slightly wounded leaf of Crofton weed with a needle. The test has shown that the pathogenic capability of 3-acetyl-5-sec-butyl-4-hydroxy-3-pyrrolin-2-one analogs with respect to Crofton weed increases with the increase of concentration. The spot diameter caused on the leaf of Crofton weed after 24 hours was 2 mm at 50 μg/g.
3-acetyl-5-sec-butyl-4-hydroxy-3-pyrrolin-2-one analogue (Table 3, compounds 10-57) was dissolved in small amount of methanol. The solution was then diluted with distilled water to a concentration of 50 μg/mL. Methanol solution with same concentration and pure distilled water were used as control of the experiment. A pathogenic test was conducted by placing the toxic liquid on the slightly wounded leaf of Crofton weed with a needle. The experiment was carried out at 25° C. under the natural light and each test was repeated 6 times. It was measure the diameter of the spot after 24 h. […] The size of the side chain also has an effect on their activity.
Fourteen salts of 3-acetyl-5-sec-butyl-4-hydroxy-3-pyrrolin-2-one analogs were dissolved in small amount of methanol and diluted with distilled water to a concentration of 50 μg/mL. Methanol/water mixture was also prepared and used as control. Needle puncture method was used for the test on the small pieces of Crofton weed. Each treatment was repeated six times or more. The test samples were kept under natural light at 25° C. for 24 hours. The diameters of damaged spot of the plant leaves were measured by vernier caliper.

| SMILES | Damage level (Japanese alopecurus) | Damage level (Equal alopecurus) | Damage level (Conyza canademsis) | Damage level [1] | Damage level (Keng stiffgrass) | Damage level (Sonchus asper) | Damage level (Humulus scandens) | Damage level (Commelina bengalensis) | Damage level (Plantago asiatica) | Damage level [2] | Damage level (Cyperus difformis) | Damage level (Eclipta prostrata) | Damage level (Perilla frutescens) | Fv/Fm [3] | Time of Disease spot (Crofton weed) | Average diameter of spot after 24 h (Crofton weed) |
| --- | --- | --- | --- | --- | --- | --- | --- | --- | --- | --- | --- | --- | --- | --- | --- | --- |
| CCCCC1NC(=O)C(C(C)=O)=C1O (stereo not drawn) [Compound 14] | 3 | 3 | 3 | 3 | 3 | 3 | 2 | 3 | 2 | 2 | 3 | 3 | 2 | 0.79 | 13.8 ± 0.54 h | 6.37 ± 0.04 mm |
| CCC(C)C1NC(=O)C(C(=O)CCF)=C1O (stereo not drawn) [Compound 44] | 4 | 3 | 4 | 4 | 3 | 3 | 2 | 3 | 3 | 3 | 3 | 4 | 3 | 0.79 | 12.0 ± 1.33 h | 4.07 ± 0.51 mm |
| CCCCCCC1NC(=O)C(C(C)=O)=C1O (stereo not drawn) [Compound 16] | 3 | 3 | 3 | 3 | 3 | 3 | 3 | 3 | 2 | 2 | 3 | 3 | 2 | 0.83 | 13.80 ± 0.54 h | 7.61 ± 0.11 mm |
| CCC(C)C1NC(=O)C(C(=O)CCc2cc(Cl)cc(Cl)c2)=C1O (stereo not drawn) [Compound 48] | 4 | 4 | 4 | 4 | 4 | 4 | 3 | 4 | 2 | 3 | 4 | 4 | 2 |  | 13.5 ± 2.77 h | 4.33 ± 0.54 mm |
| CCCCCC1NC(=O)C(C(C)=O)=C1O (stereo not drawn) [Compound 15] | 3 | 3 | 3 | 2 | 3 | 3 | 2 | 3 | 3 | 3 | 3 | 4 | 3 | 0.78 | 9.5 ± 1.26 h | 9.61 ± 1.20 mm |
| CCCC(Cl)C1NC(=O)C(C(C)=O)=C1O (stereo not drawn) [Compound 40] | 3 | 3 | 3 | 3 | 3 | 3 | 3 | 3 | 3 | 2 | 3 | 3 | 2 | 0.82 | 11.93 ± 0.66 h | 8.10 ± 0.90 mm |
| CCCC(C#N)C1NC(=O)C(=C(C)O)C1=O (stereo not drawn) [Compound 53] | 3 | 4 | 3 | 3 | 4 | 3 | 2 | 3 | 2 | 3 | 3 | 4 | 2 | 0.79 | 12.90 ± 0.27 h | 7.334 ± 0.845 mm |
